Assays:
[1] = cited from earlier work
high-risk mCSPC = conditions: cited from earlier work
prostate cancer = conditions: cited from earlier work
[2] = equivalent glucocorticoid dose; cited from earlier work
[3] = test system: plasma proteins, primarily albumin; conditions: cited from earlier work
[4] = cited from earlier work; remark: listed apart in the source
[5] = Chemical compatibility of Olaparib with prednisolone on storage; type: physicochemical; conditions: Olaparib and Prednisolone combined, 1 month in sealed containers at 40° C. and 75% RH
Description: An experiment was carried out to determine whether Olaparib is chemically compatible with prednisolone, both alone and in the co-amorphous form.

[6] = test system: prostate cancer with mutations in DNA repair genes; conditions: cited from earlier work

Question: For CC(=O)O[C@H]1CC[C@@]2(C)C(=CC[C@@H]3[C@@H]2CC[C@]2(C)C(c4cccnc4)=CC[C@@H]32)C1 [Abiraterone acetate, [(3S,8R,9S,10R,13S,14S)-10,13-dimethyl-17-pyridin-3-yl-2,3,4,7,8,9,11,12,14,15-decahydro-1H-cyclopenta[a]phenanthren-3-yl] acetate], which water solubility [1] is on record?
Answer: The water solubility was “less than 1 mg/mL”.

Question: What about the mOS (high-risk mCSPC; 1000 mg daily with prednisone 5 mg twice daily and GnRH agonist/antagonist) of the same compound?
Answer: The mOS was 53.3 months.

Question: And the mPFS (high-risk mCSPC; 1000 mg daily with prednisone and GnRH agonist/antagonist)?
Answer: Its mPFS is 33.0 months.

Question: What about the “HR for mPFS vs placebo group” value (high-risk mCSPC; 95% CI, 0.39-0.55, P<0.001) of the same compound?
Answer: The value was 0.47.

Question: What about the “HR for mOS vs placebo arm” value (high-risk mCSPC; P<0.001) of the same compound?
Answer: Its value is 0.62.

Question: What about the “HR for survival vs ADT-alone group” value (prostate cancer; P<0.001) of the same compound?
Answer: The value was 0.63.

Question: What about the 3-year survival rate (prostate cancer; in vivo) of the same compound?
Answer: The 3-year survival rate was 83%.

Question: For CC(=O)OCC(=O)[C@@]1(O)CC[C@H]2[C@@H]3CCC4=CC(=O)CC[C@]4(C)[C@H]3C(=O)C[C@@]21C [Cortisone acetate], which Equivalent amount [2] is on record?
Answer: The Equivalent amount was 25 mg.

Question: With CNC(=O)c1ccc(N2C(=S)N(c3ccc(C#N)c(C(F)(F)F)c3)C(=O)C2(C)C)cc1F [Enzalutamide, 4-[3-[4-cyano-3-(trifluoromethyl)phenyl]-5,5-dimethyl-4-oxo-2-sulfanylideneimidazolidin-1-yl]-2-fluoro-N-methylbenzamide] as the compound, how does the water solubility [1] read?
Answer: The water solubility was “less than 1 mg/mL”.

Question: For C[C@]12CCC(=O)C=C1CC[C@@H]1[C@@H]2[C@@H](O)C[C@@]2(C)[C@H]1CC[C@]2(O)C(=O)CO [Hydrocortisone], which Equivalent amount [2] is on record?
Answer: The Equivalent amount was 20 mg.

Question: With CC1(C)C(=O)N(c2ccc(C#N)c(C(F)(F)F)c2)C(=S)N1c1ccc(C(N)=O)c(F)c1 [N-desmethyl enzalutamide] as the compound, how does the “bound to plasma proteins” value [3] read?
Answer: Its value is 95%.

Question: With O=C(c1cc(Cc2n[nH]c(=O)c3ccccc23)ccc1F)N1CCN(C(=O)C2CC2)CC1 [Olaparib] as the compound, how does the administered dose recovered ([4]; after 7 days, total) read?
Answer: The administered dose recovered was “approximately 86%”.

Question: What about the “administered dose found in urine” value ([4]; after 7 days) of the same compound?
Answer: The value was 44%.

Question: What about the “administered dose obtained in feces” value ([4]; after 7 days) of the same compound?
Answer: Its value is 42%.

Question: What about the AUC ([4]; after a dose of 200 mg) of the same compound?
Answer: Its AUC is 25800 ng·h/mL.

Question: What about the “increase of AUC with constant administration” value ([4]; constant administration) of the same compound?
Answer: The value was 26%.

Question: What about the “time to peak concentration” value ([4]; following oral administration) of the same compound?
Answer: Its value is 1 to 3 h.

Question: And the “effect of high-fat diet on peak concentration” value ([4]; high-fat diet)?
Answer: Its value is “does not have an effect in the peak concentration”.

Question: And the “effect of high-fat diet on tmax” value ([4]; high-fat diet)?
Answer: Its value is “can decrease the tmax”.

Question: What about the “unchanged form, share of the circulating dose” value ([4]; in vivo) of the same compound?
Answer: The value was 70%.

Question: What about the “Degradation on combined storage” value [5] of the same compound?
Answer: Its value is “No degradations”.

Question: What about the water solubility [1] of the same compound?
Answer: The water solubility was “about 0.06 mg/mL”.

Question: What about the “median time lived without evidence of cancer getting worse” value ([6]; cohort A (BRCA1, BRCA2 or ATM alterations)) of the same compound?
Answer: Its value is 7.4 months.

Question: And the “improvement of survival versus control” value ([6]; cohort A, versus abiraterone or enzalutamide)?
Answer: Its value is “more than 4 months”.

Question: And the overall survival ([6]; cohort A)?
Answer: Its overall survival is 19.1 months.

Question: What about the “tumor response (tumors shrink)” value ([6]; in vivo) of the same compound?
Answer: The value was 33%.

Question: For C[C@@H]1C[C@H]2[C@@H]3C[C@H](F)C4=CC(=O)C=C[C@]4(C)[C@H]3[C@@H](O)C[C@]2(C)[C@@]1(O)C(=O)CO [Paramethasone], which Equivalent amount [2] is on record?
Answer: Its Equivalent amount is 2 mg.

Question: For C[C@]12C=CC(=O)C=C1CC[C@@H]1[C@@H]2[C@@H](O)C[C@@]2(C)[C@H]1CC[C@]2(O)C(=O)CO [Prednisolone], which “Degradation on combined storage” value [5] is on record?
Answer: The value was “No degradations”.

Question: And the Equivalent amount [2]?
Answer: The Equivalent amount was 5 mg.

Question: Which Equivalent amount [2] does the source give for C[C@]12C=CC(=O)C=C1CC[C@H]1[C@@H]3C[C@@H](O)[C@](O)(C(=O)CO)[C@@]3(C)C[C@H](O)[C@@]12F [Triamcinolone] here?
Answer: Its Equivalent amount is 4 mg.

Source: patent US20240269073A1, “CO-AMORPHOUS FORMS FOR USE IN CANCER THERAPY” (Zerion Pharma APS, priority 2021, published 2024)
